From PubChem BioAssay (NCI)
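Exposure lasted 48 hours, with cells grown in 96-well plates and compounds tested at five concentrations. GI50 = concentration required for 50% inhibition of growth. TGI marks complete inhibition of growth.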

Experiments:
Assay in all cases: DTP human tumour cell line panel, 48 h
NCI-H460 lung = system: NCI-H460 lung
SK-MEL-2 melanoma = system: SK-MEL-2 melanoma
UACC-62 melanoma = system: UACC-62 melanoma
NCI/ADR-RES ovarian = system: NCI/ADR-RES ovarian
SNB-75 CNS = system: SNB-75 CNS
SR leukemia = system: SR leukemia
HOP-92 NSCLC = system: HOP-92 NSCLC
HT29 colon = system: HT29 colon
HS 578T breast = system: HS 578T breast
EKVX NSCLC = system: EKVX NSCLC

Structure (SMILES)	GI50 (NCI-H460 lung)	TGI (NCI-H460 lung)	GI50 (SK-MEL-2 melanoma)	TGI (SK-MEL-2 melanoma)	GI50 (UACC-62 melanoma)	GI50 (NCI/ADR-RES ovarian)	TGI (NCI/ADR-RES ovarian)	GI50 (SNB-75 CNS)	TGI (SNB-75 CNS)	GI50 (SR leukemia)	TGI (SR leukemia)	TGI (HOP-92 NSCLC)	GI50 (HT29 colon)	GI50 (HS 578T breast)	TGI (HS 578T breast)	GI50 (EKVX NSCLC)	TGI (EKVX NSCLC)	TGI (UACC-62 melanoma)	GI50 (HOP-92 NSCLC)	TGI (HT29 colon)
O=C1c2ccccc2C(=O)c2c(NCCN=Cc3ccccc3O)cccc21	2180 nM	6.91 µM	4.42 µM	11.3 µM	5590 nM	10500 nM	> 100 µM	2330 nM	7.6 µM	944 nM	> 100 µM	0.0676 µM	2260 nM	1720 nM	4.88 µM	1790 nM	5.44 µM			
O=C(NC1CCCCC1)c1ccc(Nc2ncnc3c2cnn3-c2ccccc2)cc1	7090 nM	> 100 µM	13.6 µM	36.2 µM	17500 nM	7060 nM	> 100 µM	1710 nM	5.4 µM	11600 nM	49.1 µM	8.29 µM		3370 nM	34.2 µM			> 100 µM	2530 nM	
Cc1ccc2occ/c(=N\Nc3ccccc3)c2c1		> 100 µM		> 100 µM			> 100 µM		63.2 µM		> 100 µM	97.4 µM			> 100 µM		98 µM	> 100 µM		> 100 µM
O=C(CCN1CCOCC1)Nc1cccc(-n2cc(-c3ccncc3)c(-c3ccc(Cl)c(O)c3)n2)c1	2790 nM	12.4 µM	1.85 µM	6.58 µM	1670 nM	2290 nM	> 100 µM	825 nM	3.3 µM	685 nM	8.53 µM	14 µM	1900 nM	3170 nM	25.8 µM	3630 nM	20.4 µM	13.6 µM	2060 nM	11 µM
Cc1noc2c1-c1ccccc1C(c1ccc(Cl)cc1)=N[C@H]2CC(N)=O	16700 nM	> 100 µM	18.1 µM	> 100 µM	462 nM	2740 nM	> 100 µM	134 nM	> 100 µM	976 nM	> 70.6 µM	> 100 µM	1350 nM	1590 nM	> 85.6 µM	14000 nM	> 100 µM	> 58.9 µM	540 nM	> 100 µM
COc1cc(/C=C2\CCC/C(=C\c3ccc(OCC4CO4)c(OC)c3)C2=O)ccc1OCC1CO1 (centres undefined)	2370 nM	5.59 µM	2.43 µM	5.37 µM	2020 nM	4860 nM	> 100 µM	2920 nM	19.1 µM	2290 nM	> 100 µM	> 100 µM	2250 nM	4220 nM	> 100 µM			4.8 µM	3300 nM	4.62 µM
COc1ccc(-c2noc(N)c2-c2cc(OC)c3c(c2)OCO3)cc1	3130 nM	28 µM	1.51 µM	6.83 µM	4220 nM	721 nM		1740 nM	7.03 µM	523 nM	> 51.2 µM	76.8 µM	1390 nM	2610 nM	24.4 µM			> 100 µM	2470 nM	> 35.5 µM
Clc1nc(Cl)c2ncn(Cc3ccccc3Cn3cnc4c(Cl)nc(Cl)nc43)c2n1	3070 nM	11.7 µM	8.96 µM	27.8 µM	1660 nM	7040 nM	17.2 µM	3900 nM	16.4 µM	2170 nM	5.15 µM	4.16 µM	2130 nM	2870 nM	9.39 µM	1360 nM	3.02 µM	3.25 µM	1900 nM	
NCCCOc1cc(Cl)ccc1NC(=O)c1cc2ccccc2cc1OCCCN	1680 nM	3.21 µM	1.58 µM	3.19 µM	1780 nM	1970 nM	4.25 µM	1230 nM	2.5 µM	1720 nM	4.71 µM	2.85 µM	1620 nM	1590 nM	3.57 µM	1690 nM	3.58 µM	3.3 µM	1320 nM	4.16 µM
COc1cc2c3c(n(CCCN(CCO)CCO)c(=O)c2cc1OC)-c1cc2c(cc1C3=O)OCO2	< 10 nM	2.28 µM	8.79 µM	> 33 µM	< 10 nM	117 nM		81.1 nM	2.19 µM	< 10 nM	< 0.01 µM	4.18 µM	< 10 nM	1660 nM	13 µM	887 nM	13.6 µM	0.503 µM		1.03 µM
COc1ccc(-c2cc(Nc3ccnc(N4CCOCC4)n3)on2)cc1	240 nM	10.4 µM	0.457 µM	29.5 µM	115 nM	143 nM	5.76 µM	100 nM	0.576 µM	56.6 nM	> 100 µM	22.5 µM	243 nM	303 nM	9.8 µM	685 nM	17 µM	15.9 µM	3460 nM	11.5 µM
CCc1nc(Cl)c(Cl)c(Cl)n1		> 100 µM		> 100 µM			> 100 µM		> 100 µM		> 100 µM				> 100 µM		> 100 µM	> 100 µM		> 100 µM
C=C1C(O)C2C(=C(C)C13CC3)C(=O)C(C)(C)C2OC (centres undefined)	> 100000 nM	> 100 µM	> 100 µM	> 100 µM	90400 nM	> 100000 nM	> 100 µM	> 100000 nM	> 100 µM	38000 nM	> 100 µM	> 100 µM	> 100000 nM	59600 nM	> 100 µM	> 100000 nM	> 100 µM	> 100 µM	24800 nM	> 100 µM
O=C(N/N=C/c1ccc(O)cc1O)c1cccnc1	1180 nM	> 100 µM	13.5 µM	60.8 µM	2380 nM	3260 nM	> 100 µM	1150 nM	26.1 µM	3210 nM	> 100 µM	43.5 µM	7520 nM	7260 nM	82.1 µM			17.5 µM	2090 nM	> 100 µM
CCOC(=O)C1=C(N)Oc2c(sc3c(C)cccc23)C1c1ccc(F)cc1 (centres undefined)	415 nM	11 µM	5.39 µM	24.8 µM	399 nM	384 nM	14.5 µM	265 nM	11.7 µM	470 nM	17.9 µM	13.4 µM	938 nM	472 nM	7.17 µM	880 nM	19.7 µM	13.5 µM	2130 nM	12.8 µM
O=C(NNc1cnccn1)c1nc2cc(F)ccc2n2cccc12	403 nM	> 100 µM	1.61 µM	> 100 µM	700 nM	461 nM	> 44.8 µM	1310 nM	> 30.4 µM	247 nM	> 100 µM		649 nM	2830 nM	> 100 µM	387 nM	> 100 µM	> 100 µM		> 100 µM
COC(=O)[C@]12CC[C@@H](C)[C@H](C)[C@@H]1C1=CC[C@@H]3[C@@]4(C)C(C=O)=C[C@@](C)(COC(=O)c5ccco5)[C@@H]4[C@H](O)C[C@@]3(C)[C@]1(C)CC2	2510 nM	6.3 µM	0.423 µM	1.9 µM	382 nM	2760 nM	12 µM	1490 nM	4.12 µM	1800 nM	5.13 µM	4.27 µM	1810 nM	2720 nM	8.96 µM	3020 nM	13.8 µM	2.22 µM	1560 nM	4.14 µM
CC(=O)NC1CONC1=O (centres undefined)		> 100 µM		> 100 µM			> 100 µM		> 100 µM		> 100 µM	> 100 µM			> 100 µM		> 100 µM	> 100 µM		> 100 µM
NC(N)=N/N=C(\N=Nc1ccccc1)c1ccc(Cl)cc1	3130 nM	16.5 µM	3.79 µM	13.1 µM	1130 nM	2760 nM	10.4 µM	4670 nM	17.8 µM	1930 nM	4.72 µM		2290 nM	4790 nM	46.6 µM	2550 nM	13.5 µM	4.35 µM		5.39 µM
COc1ccc2c(c1)C(C)Cc1c(ncnc1-n1cnc3ccccc31)N2C (centres undefined)	397 nM	11.4 µM	0.357 µM	24.6 µM	735 nM	395 nM	> 100 µM			330 nM	28 µM	8.23 µM	336 nM	535 nM	37.2 µM	632 nM	20 µM	21.2 µM	441 nM	1.43 µM
Cn1cc(S(=O)(=O)N2CCC3=Cc4c(cnn4-c4ccc(F)cc4)C[C@]3(C(=O)c3cc(C(F)(F)F)ccn3)C2)cn1	> 100000 nM	> 100 µM	88.2 µM	> 100 µM	29100 nM	> 100000 nM	> 100 µM	> 100000 nM	> 100 µM			> 100 µM	89700 nM	37800 nM	> 100 µM	7980 nM	> 100 µM	> 100 µM	6570 nM	> 100 µM
COc1cc(/C=C/C(=O)C(C(=O)/C=C/c2ccc(OC(=O)CCNC34CC5CC(CC(C5)C3)C4)c(OC)c2)C(=O)CCNC23CC4CC(CC(C4)C2)C3)ccc1OC(=O)CCNC12CC3CC(CC(C3)C1)C2 (centres undefined)	2980 nM	10.2 µM	3.53 µM	> 100 µM	3370 nM	4820 nM	90.2 µM	4860 nM	33.3 µM			31.4 µM	1690 nM	2100 nM	6.84 µM	2950 nM	8.97 µM	13.3 µM	4750 nM	3.24 µM
CC1(C)N=C(N)N=C(N)N1c1cccc(OCCOc2cccc([N+](=O)[O-])c2)c1	541 nM	> 100 µM	15.2 µM	> 100 µM	2280 nM	> 100000 nM	> 100 µM	3260 nM	> 100 µM	543 nM	> 100 µM	73.5 µM	583 nM	33500 nM	> 100 µM			> 100 µM	3510 nM	> 100 µM
COc1cc2c3c(n(CCCN(C)CCO)c(=O)c2cc1OC)-c1cc2c(cc1C3=O)OCO2	1890 nM	> 100 µM	> 100 µM	> 100 µM	1540 nM	3210 nM	31.5 µM		> 58.5 µM			35.1 µM	9060 nM	> 61300 nM	> 100 µM	> 44400 nM	> 100 µM	24.7 µM	2820 nM	> 75.2 µM
Oc1ccc(/C=C/c2cc(O)cc3c2C(c2cc(O)cc(O)c2)C(c2ccc(O)c(O)c2)O3)cc1 (centres undefined)				74.8 µM			> 100 µM		> 100 µM		55.4 µM	> 100 µM			88.8 µM		> 100 µM	42.4 µM		47.6 µM
CC(Cl)CN1c2ccccc2Sc2ccc(Cl)cc21 (centres undefined)		> 10 µM		> 10 µM			> 10 µM		> 10 µM			> 10 µM			> 10 µM		> 10 µM	> 10 µM		> 10 µM
NCCCOc1cc2ccccc2cc1C(=O)NCCCOc1cc2ccccc2cc1C(=O)Nc1ccc(Cl)cc1O	202 nM	0.387 µM	1.21 µM	2.91 µM	1580 nM	1220 nM	6.01 µM	455 nM	1.02 µM	194 nM	0.871 µM		411 nM	1860 nM	4.39 µM	740 nM	2.43 µM	3.53 µM		1.61 µM
NC(=O)CNc1ccc([As]=[As]c2ccc(NCC(N)=O)cc2)cc1 (centres undefined)	10600 nM	35.4 µM			4200 nM	9130 nM	> 100 µM	1730 nM	9.13 µM	2250 nM	> 100 µM	15.1 µM		1450 nM	21.1 µM	4830 nM	90.9 µM	18.2 µM	1630 nM	
